The structures appear in SMILES notation.

T1 sequence (Q15858 whole entry): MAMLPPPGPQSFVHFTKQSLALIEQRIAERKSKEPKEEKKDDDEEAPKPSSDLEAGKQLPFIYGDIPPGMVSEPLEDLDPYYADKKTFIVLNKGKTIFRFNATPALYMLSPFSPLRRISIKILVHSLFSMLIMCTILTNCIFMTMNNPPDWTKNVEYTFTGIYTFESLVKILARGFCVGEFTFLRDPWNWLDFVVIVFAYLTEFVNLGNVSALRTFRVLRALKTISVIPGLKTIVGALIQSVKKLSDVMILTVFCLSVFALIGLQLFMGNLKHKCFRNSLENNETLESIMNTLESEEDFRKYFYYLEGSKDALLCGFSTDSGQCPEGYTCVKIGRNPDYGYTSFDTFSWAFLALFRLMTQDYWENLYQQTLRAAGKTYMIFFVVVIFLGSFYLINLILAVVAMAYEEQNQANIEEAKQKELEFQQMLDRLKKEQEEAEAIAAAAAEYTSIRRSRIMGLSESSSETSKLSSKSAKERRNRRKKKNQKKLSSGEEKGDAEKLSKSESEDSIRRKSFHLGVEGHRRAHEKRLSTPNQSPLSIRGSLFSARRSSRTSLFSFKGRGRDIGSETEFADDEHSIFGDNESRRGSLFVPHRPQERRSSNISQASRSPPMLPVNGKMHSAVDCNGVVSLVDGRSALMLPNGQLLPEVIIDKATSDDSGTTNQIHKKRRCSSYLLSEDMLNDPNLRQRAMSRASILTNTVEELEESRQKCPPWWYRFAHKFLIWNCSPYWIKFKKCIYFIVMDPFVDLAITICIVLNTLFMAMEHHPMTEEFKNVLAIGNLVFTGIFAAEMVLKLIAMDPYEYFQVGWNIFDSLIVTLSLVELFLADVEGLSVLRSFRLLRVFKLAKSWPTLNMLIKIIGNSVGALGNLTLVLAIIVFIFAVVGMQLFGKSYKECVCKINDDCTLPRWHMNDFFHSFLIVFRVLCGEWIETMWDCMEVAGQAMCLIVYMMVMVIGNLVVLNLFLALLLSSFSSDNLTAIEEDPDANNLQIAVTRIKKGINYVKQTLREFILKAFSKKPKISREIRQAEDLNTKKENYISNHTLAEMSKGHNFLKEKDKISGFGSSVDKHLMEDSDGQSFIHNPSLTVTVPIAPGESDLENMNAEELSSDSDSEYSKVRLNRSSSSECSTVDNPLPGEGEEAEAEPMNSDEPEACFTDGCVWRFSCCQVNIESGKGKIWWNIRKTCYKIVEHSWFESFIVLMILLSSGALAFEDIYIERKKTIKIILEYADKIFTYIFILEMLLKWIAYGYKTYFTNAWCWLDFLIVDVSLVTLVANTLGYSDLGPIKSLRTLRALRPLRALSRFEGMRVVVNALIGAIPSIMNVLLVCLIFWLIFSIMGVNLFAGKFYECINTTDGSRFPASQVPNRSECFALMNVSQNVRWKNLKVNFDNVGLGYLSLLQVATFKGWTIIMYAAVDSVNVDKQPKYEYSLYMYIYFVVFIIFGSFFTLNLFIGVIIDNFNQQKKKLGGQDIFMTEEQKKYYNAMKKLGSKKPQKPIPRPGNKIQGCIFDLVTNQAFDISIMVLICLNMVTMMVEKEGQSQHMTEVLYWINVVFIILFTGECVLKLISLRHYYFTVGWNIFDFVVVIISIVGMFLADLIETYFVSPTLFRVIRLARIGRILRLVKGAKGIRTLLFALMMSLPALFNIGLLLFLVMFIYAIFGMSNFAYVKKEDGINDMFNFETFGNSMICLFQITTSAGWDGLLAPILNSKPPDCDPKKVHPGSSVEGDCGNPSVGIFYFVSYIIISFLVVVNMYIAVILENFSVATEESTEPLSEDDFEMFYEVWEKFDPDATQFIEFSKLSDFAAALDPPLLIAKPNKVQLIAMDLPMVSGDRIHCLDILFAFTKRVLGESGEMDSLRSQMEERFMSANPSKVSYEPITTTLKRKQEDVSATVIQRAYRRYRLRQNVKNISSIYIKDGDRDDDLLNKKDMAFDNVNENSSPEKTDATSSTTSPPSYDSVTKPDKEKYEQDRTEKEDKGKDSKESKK

The assay has as its target T1, human Nav1.7 channels (Homo sapiens, UniProt Q15858).
T1 construct: host or cells: HEK293
Put plainly: hNav1.7 channel assay, whole cell patch clamp, two-pulse protocol. The note with it: TP2 (inactivated phase inhibition), HEK293 cells stably expressing human Nav1.7, read-out: Inhibition activity: percent inhibition on the inactivated state of hNav1.7. It is filed as cell-based. From the text: Whole cell patch clamp technique was used to investigate the inhibitory effects of the compound of Examples on human Nav1.7 channels, stably expressed in HEK293 cells. Human Nav1.7 recombinant cell line (CYL3011-precisION) was purchased from Eurofins.
Two-pulse protocol was used every 10 seconds to assess the state-dependent inhibition by Examples. From the holding potential of −90 mV, pre-pulse (200 ms at −120 mV) was followed by test pulse1 ([…]), then test pulse2 (TP2: 20 ms at 0 mV) was evoked after inter-pulse (20 ms at −100 mV).
Peak current amplitudes were measured for test pulses TP1 (resting phase inhibition) and TP2 (inactivated phase inhibition). The following solutions were used for screening assay: External (mM): 145 NaCl, 1 MgCl2, 1.8 CaCl2, 10 Hepes, 5 Glucose, pH 7.4, 300 mOsm; Internal (mM): 120 CsF, 10 NaCl, 10 EGTA, 10 HEPES, pH 7.2, 290 mOsm.
The inhibition on the inactivated state of hNav1.7 was calculated as: % inhibition (inactivation state)=(1−(ITP2, TA/ITP2, Control)×100%, where ITP2 (the inward peak Na+ currents), Control and ITP2, TA were elicited by the TP2 in control (vehicle only) and in the presence of a test article (TA) indicating Examples, respectively.
The inhibition is the relative decrease from the control value, in per cent. For the compound `O=C(NCc1cccc[n+]1[O-])c1cccc(-c2cccc(Cl)c2)c1` [Example 4, 3-(3-chlorophenyl)-N-[(1-oxidopyridin-1-ium-2-yl)methyl]benzamide], the inhibition at 10 µM lay within 40 to 70%.
For `O=C(NCc1cccc[n+]1[O-])c1cccc(-c2cc(Cl)ccc2Cl)c1` [Example 10, 3-(2,5-dichlorophenyl)-N-[(1-oxidopyridin-1-ium-2-yl)methyl]benzamide] the value was 40 to 70%; for `O=C(NCc1cccc[n+]1[O-])c1cccc(-c2cc(F)cc(C(F)(F)F)c2)c1` [Example 41, 3-[3-fluoro-5-(trifluoromethyl)phenyl]-N-[(1-oxidopyridin-1-ium-2-yl)methyl]benzamide], 10 to 40%.
For `Cc1cc(C(F)(F)F)ccc1-c1cccc(C(=O)NCc2cccc[n+]2[O-])c1` [Example 38, 3-[2-methyl-4-(trifluoromethyl)phenyl]-N-[(1-oxidopyridin-1-ium-2-yl)methyl]benzamide] the value was 40 to 70%; for `O=C(NCc1ccc(F)c[n+]1[O-])c1cccc(-c2ccc(Cl)cc2)c1` [Example 61, 3-(4-chlorophenyl)-N-[(5-fluoro-1-oxido-pyridin-1-ium-2-yl)methyl]benzamide], 70 to 100%.
Then `O=C(NCc1cccc[n+]1[O-])c1cccc(-c2ccc(Cl)cc2Cl)c1` [Example 9, 3-(2,4-dichlorophenyl)-N-[(1-oxidopyridin-1-ium-2-yl)methyl]benzamide], with 70 to 100%; and `O=C(NCc1cccc[n+]1[O-])c1cccc(-c2ccc(C(F)(F)F)cc2C(F)(F)F)c1` [Example 11, 3-[2,4-bis(trifluoromethyl)phenyl]-N-[(1-oxidopyridin-1-ium-2-yl)methyl]benzamide], with 70 to 100%.
Take `O=C(NCc1cccc[n+]1[O-])c1cc(-c2ccc(Cl)cc2C(F)(F)F)ccc1F` [Example 55, 5-[4-chloro-2-(trifluoromethyl)phenyl]-2-fluoro-N-[(1-oxidopyridin-1-ium-2-yl)methyl]benzamide]: the inhibition at 10 µM lay in the range of 40 to 70%.
Then `O=C(NCc1cccc[n+]1[O-])c1cccc(-c2ccccc2F)c1` [Example 25, 3-(2-fluorophenyl)-N-[(1-oxidopyridin-1-ium-2-yl)methyl]benzamide], with 70 to 100%; and `CC(C)c1ccc(-c2cccc(C(=O)NCc3cccc[n+]3[O-])c2)cc1` [Example 24, 3-(4-isopropylphenyl)-N-[(1-oxidopyridin-1-ium-2-yl)methyl]benzamide], with 10 to 40%; and `COc1cc(OC(F)(F)F)ccc1-c1ccc(F)c(C(=O)NCc2cccc[n+]2[O-])c1` [Example 56, 2-fluoro-5-[2-methoxy-4-(trifluoromethoxy)phenyl]-N-[(1-oxidopyridin-1-ium-2-yl)methyl]benzamide], with 70 to 100%.
Then `COc1cc(Cl)ccc1-c1cccc(C(=O)NCc2cccc[n+]2[O-])c1` [Example 26, 3-(4-chloro-2-methoxy-phenyl)-N-[(1-oxidopyridin-1-ium-2-yl)methyl]benzamide], with 10 to 40%; and `O=C(NCc1cccc[n+]1[O-])c1cccc(-c2ccccc2C(F)(F)F)c1` [Example 21, N-[(1-oxidopyridin-1-ium-2-yl)methyl]-3-[2-(trifluoromethyl)phenyl]benzamide], with 40 to 70%; and `COc1cc(F)c(F)cc1-c1cccc(C(=O)NCc2cccc[n+]2[O-])c1` [Example 47, 3-(4,5-difluoro-2-methoxy-phenyl)-N-[(1-oxidopyridin-1-ium-2-yl)methyl]benzamide], with 10 to 40%.
For `O=C(NCc1cccc[n+]1[O-])c1cccc(-c2cc(F)cc(Cl)c2)c1` [Example 29, 3-(3-chloro-5-fluoro-phenyl)-N-[(1-oxidopyridin-1-ium-2-yl)methyl]benzamide] the value was 70 to 100%.
Turning to `O=C(NCc1cccc[n+]1[O-])c1cccc(-c2ccc(F)cc2F)c1` [Example 31, 3-(2,4-difluorophenyl)-N-[(1-oxidopyridin-1-ium-2-yl)methyl]benzamide], the inhibition at 10 µM was 40 to 70%.
For `O=C(NCc1cccc[n+]1[O-])c1cccc(-c2cc(F)cc(F)c2)c1` [Example 32, 3-(3,5-difluorophenyl)-N-[(1-oxidopyridin-1-ium-2-yl)methyl]benzamide] the value was 70 to 100%.
For `O=C(NCc1cccc[n+]1[O-])c1cccc(-c2ccc(F)cc2)c1` [Example 18, 3-(4-fluorophenyl)-N-[(1-oxidopyridin-1-ium-2-yl)methyl]benzamide] the value was 40 to 70%.
Then `O=C(NCc1cccc[n+]1[O-])c1cccc(-c2cccc(F)c2F)c1` [Example 34, 3-(2,3-difluorophenyl)-N-[(1-oxidopyridin-1-ium-2-yl)methyl]benzamide], with 10 to 40%; and `COc1cc(Cl)ccc1-c1ccc(F)c(C(=O)NCc2cccc[n+]2[O-])c1` [Example 53, 5-(4-chloro-2-methoxy-phenyl)-2-fluoro-N-[(1-oxidopyridin-1-ium-2-yl)methyl]benzamide], with 70 to 100%; and `CC(C)(O)c1ccc(-c2cccc(C(=O)NCc3cccc[n+]3[O-])c2)cc1` [Example 44, 3-[4-(1-hydroxy-1-methyl-ethyl)phenyl]-N-[(1-oxidopyridin-1-ium-2-yl)methyl]benzamide], with 70 to 100%.
Consider `O=C(NCc1cccc[n+]1[O-])c1cccc(-c2ccc(F)c(Cl)c2)c1` [Example 17, 3-(3-chloro-4-fluoro-phenyl)-N-[(1-oxidopyridin-1-ium-2-yl)methyl]benzamide], for which the inhibition at 10 µM was 40 to 70%.
As to `Cc1cccc(-c2cccc(C(=O)NCc3cccc[n+]3[O-])c2)c1` [Example 23, 3-(m-tolyl)-N-[(1-oxidopyridin-1-ium-2-yl)methyl]benzamide], the inhibition at 10 µM was in the range of 40 to 70%.
For `O=C(NCc1cccc[n+]1[O-])c1cccc(-c2ccccc2)c1` [Example 12, N-[(1-oxidopyridin-1-ium-2-yl)methyl]-3-phenyl-benzamide] the value was 40 to 70%; for `Cc1cc(-c2cccc(C(=O)NCc3cccc[n+]3[O-])c2)ccc1Cl` [Example 28, 3-(4-chloro-3-methyl-phenyl)-N-[(1-oxidopyridin-1-ium-2-yl)methyl]benzamide], 70 to 100%.
For the compound `O=C(NCc1cccc[n+]1[O-])c1cc(-c2ccc(OC(F)(F)F)cc2)ccc1F` [Example 58, 2-fluoro-N-[(1-oxidopyridin-1-ium-2-yl)methyl]-5-[4-(trifluoromethoxy)phenyl]benzamide], the inhibition at 10 µM is 70 to 100%.
Consider `O=C(NCc1cccc[n+]1[O-])c1cccc(-c2cc(Cl)cc(Cl)c2)c1` [Example 7, 3-(3,5-dichlorophenyl)-N-[(1-oxidopyridin-1-ium-2-yl)methyl]benzamide], for which the inhibition at 10 µM fell in the range of 40 to 70%.
Then `O=C(NCc1cccc[n+]1[O-])c1cccc(-c2ccc(C(F)(F)F)cc2F)c1` [Example 16, 3-[2-fluoro-4-(trifluoromethyl)phenyl]-N-[(1-oxidopyridin-1-ium-2-yl)methyl]benzamide], with 40 to 70%.
For `O=C(NCc1cccc[n+]1[O-])c1cccc(-c2ccc(C3CC3)cc2)c1` [Example 36, 3-(4-cyclopropylphenyl)-N-[(1-oxidopyridin-1-ium-2-yl)methyl]benzamide] the value was 40 to 70%.

Source of the values: patent US20250333383A1, “N-OXIDE COMPOUNDS AND USE THEREOF” (SK BIOPHARMACEUTICALS CO., LTD., priority 2022, published 2025).
